# From patent US8637467B2, “Pharmaceutical being used for treating cancer and fibrosis disease and the composition and uses thereof” (Wuxi MTLH Biotechnology Co., Ltd., priority 2008, dated 2014)
# Where no end group is shown, it is not given here.
# Assays:
# α-SMA protein = assay: Western blot of α-SMA protein expression in HSC; format: cell-based, SD rat; details: FIG. 5
# Method: HSC from SD rats were separated using centrifuging on gradient created by Pronase-collagenase and Nycodenz. HSC cells at 1.5×10^5/cm2 was plated at 6-well plate, or culture dish (100 mm diameter). The culture medium is DMEM with 20% serum from newborn calf. The purity of HSC cells was determined using Vitamin A self-fluorescence and anti-Desmin immunocytochemistry experiments. Cell viability was determined using trypan blue staining. First generation HSC's purity and viability were 90% and 95% respectively. HSC can self-activate if grown in non-ECM condition, which means HSC can express α-SMA, and Vitamin A drop disappears. After cell fusion, activated HSC is released with trypsin, and propagate.
# Collect cells and add cell lysis buffer, extract total protein. Total protein amount was determined using Bradford assay. 40 μg total protein was examined using 10% SDS polyacrylamide gel. The gel was probed using monoclonal antibody against α-SMA.
# [1] = system: human liver cancer BEL-7402; assay: Human liver cancer BEL-7402 xenograph nude mice; format: in vivo; details: for T/C(%) relative tumor inhibition rate: 6 times a week, 3 weeks
# Method: (§1) Experimental animals: Female BALB/cA nude mice, age 35-40 days, weight 18-22 g, provided by Shanghai Silaike Experimental Animal Co. Ltd., certificate number: SOCK (Shanghai) 2007-0005.
# (§2) The tumor of xenograph nude mice grew to 100˜300 mm^3. Tumor mice were divided into different groups for drug testing. In the experiment below, there were 12 nude mice in negative control group, and 6 nude mice in the group with tested drug. Tumor diameter was measured three times each week, and mice weight was measured at the same time.
# (§3) T/C (relative tumor inhibition rate) % was calculated as below: • (1) tumor volume, TV, calculated as below: TV=½×a×b^2 • A and b are length and width. • (2) relative tumor volume, RTV, calculated as below: RTV=TVt/TV0. • TV0 ? is tumor volume at the beginning of drug use (d0), TVt is tumor volume at later time point. • (3) relative tumor inhibition rate T/C (%), calculate as below:
# (§4) [formula] TRTV: treatment group RTV; CRTV: negative control RTV
# […] Docetaxol was positive control, at dosing of 20 mg/kg, once a week. Negative control was given saline solution. The xenograph nude mice were treated for 3 weeks.
# [2] = system: human stomach cancer SGC-7901; assay: Human stomach cancer SGC-7901 xenograph nude mice; format: in vivo; details: 0.125 mg/kg IV, 6 times a week, 3 weeks
# Method: as §1, §2, §3, §4
# Peptide SEQ ID No:1 was given through tail vain (IV), at dosing of 1 mg/kg, 0.5 mg/kg, 0.25 mg/kg, 0.125 mg/kg, and 0.0625 mg/kg, 6 times a week. 5-FU was positive control, at dosing of 25 mg/kg, once a week. Negative control was given saline solution. The xenograph nude mice were treated for 3 weeks.
# [3] = system: human breast cancer MDA-MB-435; assay: Human breast cancer MDA-MB-435 xenograph nude mice; format: in vivo; details: 0.5 mg/kg IV, 6 times a week, 4 weeks
# Method: as §1, §2, §3, §4
# Peptide SEQ ID No:1 was given through tail vein (IV), at dosing of 2 mg/kg, 1 mg/kg, 0.5 mg/kg, 6 times a week. Docetaxol was positive control, at dosing of 20 mg/kg, once a week. Negative control was given saline solution. The xenograph nude mice were treated for 4 weeks.
# [4] = system: phosphorylation of Erk1/2; assay: Western blot, PDGFR intracellular Ras-Raf signaling pathway in HUVEC; format: cell-based, Human; details: 6 hours, 10 ug/ml (2 uM)
# Method: Various concentration of Peptide SEQ ID No:1 was incubated with Human Umbilical Vein Endothelial Cells (HUVEC) cells for 6 hours. Protein was extracted from these cells and western blot was performed. Antibody for p-stat1: Antibody against phophorylated-Tyr701; Antibody for p-MEK1/2: Antibody against phophorylated-Ser217/221 peptide; Antibody for p-Erk1/2: Antibody against phophorylated-Ser202/204. beta-Actin was a control to make sure all lanes are loaded with same amount of protein.
substance,measurement,setting,value
SKVTKKYHEVLQLRPKTGVRGLHKSLTDVALEHHEECDCVCRGSTGG-OH (cysteines drawn unpaired) [Peptide SEQ ID NO:1],α-SMA protein expression (Western Blot),α-SMA protein; after 48 hours,starts to decrease α-SMA protein expression
same,α-SMA protein expression (Western Blot),α-SMA protein; after 72 hours,significantly decrease α-SMA protein expression
same,T/C(%) relative tumor inhibition rate,[1]; 0.0625 mg/kg IV,58.56%
same,T/C(%) relative tumor inhibition rate,[1]; 0.125 mg/kg IV,62.10%
same,T/C(%) relative tumor inhibition rate,[1]; 0.25 mg/kg IV,69.06%
same,T/C(%) relative tumor inhibition rate,[1]; 0.5 mg/kg IV,64.90%
same,"inhibition, tumor","[1]; BEL-7402, 1 mg/kg",39.7%
same,T/C(%) relative tumor inhibition rate,[2],47.66%
same,T/C(%) relative tumor inhibition rate,[3],49.40%
same,phosphorylation of Erk1/2 (western blot),[4],significantly inhibits phosphorylation of Erk1/2
